Assay results taken from the supplement of paper PMC10307832.

Experiments:
Experiment in all cases: relative viability (nuclei count vs DMSO), 5 days (fraction); higher = more cells survive
VE-821 + Navitoclax = compound: CS(=O)(=O)c1ccc(-c2cnc(N)c(C(=O)Nc3ccccc3)n2)cc1 [VE-821] + CC1(C)CCC(c2ccc(Cl)cc2)=C(CN2CCN(c3ccc(C(=O)NS(=O)(=O)c4ccc(N[C@H](CCN5CCOCC5)CSc5ccccc5)c(S(=O)(=O)C(F)(F)F)c4)cc3)CC2)C1 [Navitoclax] (partner 0.5 µM)
Summary of the method: (§1)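 Relative viability divides the nuclei count in treated wells by that in vehicle wells. Lung cancer cell lines were seeded in 1536-well plates, dosed by pin tool the next day, and fixed and stained after 5 days in one step with final 0.05% Triton X-100, 1% formaldehyde and 1 ug/ml Hoechst. Dosing was a single drug or a fixed anchor-drug dose plus five library-drug doses (not always all listed) in √10 steps, and values are medians of duplicate plates imaged at 4×.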

Vismodegib + Palbociclib = compound: CS(=O)(=O)c1ccc(C(=O)Nc2ccc(Cl)c(-c3ccccn3)c2)c(Cl)c1 [Vismodegib] + CC(=O)c1c(C)c2cnc(Nc3ccc(N4CCNCC4)cn3)nc2n(C2CCCC2)c1=O [Palbociclib] (partner 0.5 µM)
Summary of the method: as §1

Vismodegib + Navitoclax = compound: CS(=O)(=O)c1ccc(C(=O)Nc2ccc(Cl)c(-c3ccccn3)c2)c(Cl)c1 [Vismodegib] + CC1(C)CCC(c2ccc(Cl)cc2)=C(CN2CCN(c3ccc(C(=O)NS(=O)(=O)c4ccc(N[C@H](CCN5CCOCC5)CSc5ccccc5)c(S(=O)(=O)C(F)(F)F)c4)cc3)CC2)C1 [Navitoclax] (partner 0.5 µM)
Summary of the method: as §1

Ruxolitinib + Pemetrexed = compound: N#CC[C@H](C1CCCC1)n1cc(-c2ncnc3[nH]ccc23)cn1 [Ruxolitinib] + Nc1nc2[nH]cc(CCc3ccc(C(=O)N[C@@H](CCC(=O)O)C(=O)O)cc3)c2c(=O)[nH]1 [Pemetrexed] (partner 0.2 µM)
Summary of the method: as §1

Cell Line	relative viability (VE-821 + Navitoclax; first compound 0.08 µM)	relative viability (VE-821 + Navitoclax; first compound 0.253 µM)	relative viability (VE-821 + Navitoclax; first compound 2.53 µM)	relative viability (VE-821 + Navitoclax; first compound 8 µM)	relative viability (Vismodegib + Palbociclib; first compound 0.08 µM)	relative viability (Vismodegib + Palbociclib; first compound 0.253 µM)	relative viability (Vismodegib + Palbociclib; first compound 0.8 µM)	relative viability (Vismodegib + Palbociclib; first compound 2.53 µM)	relative viability (Vismodegib + Palbociclib; first compound 8 µM)	relative viability (Vismodegib + Navitoclax; first compound 0.08 µM)	relative viability (Vismodegib + Navitoclax; first compound 0.253 µM)	relative viability (Vismodegib + Navitoclax; first compound 0.8 µM)	relative viability (Vismodegib + Navitoclax; first compound 2.53 µM)	relative viability (Vismodegib + Navitoclax; first compound 8 µM)	relative viability (Ruxolitinib + Pemetrexed; first compound 0.08 µM)	relative viability (Ruxolitinib + Pemetrexed; first compound 0.253 µM)	relative viability (Ruxolitinib + Pemetrexed; first compound 0.8 µM)	relative viability (Ruxolitinib + Pemetrexed; first compound 2.53 µM)	relative viability (Ruxolitinib + Pemetrexed; first compound 8 µM)	relative viability (VE-821 + Navitoclax; first compound 0.8 µM)
NCI-H520	1.16	1.15	1.1	0.671	0.182	0.224	0.254	0.198	0.288	1.06	1.12	0.941	1.12	1.09	0.74	0.714	0.748	0.466	0.413	
NCI-H1355	1.09	0.91	0.879	0.542	0.391	0.441	0.384	0.413	0.433	0.931	1.06	0.863	0.913	0.952	1.1	0.977	1.09	1.02	1.01	0.729
NCI-H1563															0.724	0.744	0.892	0.774	0.544	
NCI-H1651	0.97	0.941	1.02	0.864	0.463	0.511	0.502	0.51	0.54	0.954	0.956	0.984	0.885	1.11	0.578	0.597	0.593	0.599	0.643	0.949
HCC-44	1.01	0.992	1.19	1.08	1.02	0.92	0.911	0.913	1.01	1.05	0.893	1.05	0.989	0.87	0.632	0.694	0.646	0.571	0.641	0.975
NCI-H1437	1.17	1.11	1.12	1.04	0.305	0.303	0.309	0.311	0.325	0.945	1.08	1.09	1.07	1.1	0.469	0.292	0.304	0.319	0.254	1.01
201T	1.23	1.2	1.32	1.12	0.323	0.393	0.363	0.359	0.382	1.23	1.18	1.15	1.23	1.17	0.336	0.338	0.389	0.325	0.299	1.21
LCLC-103H					0.473	0.475	0.481	0.517	0.526						0.454	0.474	0.45	0.46	0.455	
NCI-H1915	0.8	0.81	0.79	0.678	0.499	0.483	0.549	0.53	0.53	0.773	0.805	0.747	0.729	0.759	0.512	0.501	0.515	0.518	0.439	0.826
NCI-H2085	1.12	1.12	1.24	1.03	0.459	0.474	0.483	0.467	0.502	1.11	1.06	1.12	1.06	1.12	0.918	0.825	1.09	0.783	0.653	1.24
NCI-H2228	0.943	1.01	0.842	0.741	0.927	0.74	0.761	0.627	0.955	0.838	1.1	0.932	0.741	0.901	0.332	0.342	0.318	0.324	0.321	0.811
EKVX	1.17	0.975	1.01	0.907		0.38	0.392	0.325	0.433	0.664	0.901	0.999	0.899	0.914		0.403	0.41	0.402	0.237	0.632
COR-L23	1.05	1.01	1.15	0.894	0.337	0.33	0.344	0.289	0.312	1.02	1.03	0.959	0.951	1.14	0.203	0.191	0.201	0.195	0.191	1.23
SK-MES-1	1.3	1.23	1.21	1.26	0.289	0.306	0.349	0.351	0.364	1.23	1.22	1.23	1.15	1.17	1.03	0.865	1.01	0.849	0.823	1.24
A549	1.48	1.21	1.04	0.544						1.02	1.13	1.28	1.18	1.23						1.18
NCI-H650					0.359	0.323	0.309	0.338	0.341						0.898	0.98	0.958	0.966	0.683	
NCI-H2087	1.04	1.04	1.17	0.892	0.188	0.235	0.22	0.217	0.232	0.952	0.969	0.961	0.954	0.943	0.685		0.726	0.703	0.652	1.06
EBC-1	0.44	0.412	0.254	0.221						0.412	0.39	0.436	0.397	0.643						0.399
NCI-H1648					0.282	0.246	0.214	0.274	0.241						0.674	0.838	0.739	0.923	1.02	
NCI-H661					0.446	0.432	0.439	0.39	0.405						0.925	0.959	0.939	1	0.809	
NCI-H596	0.72	1.05	0.894	0.644						0.95	1.01	0.848	0.882	0.904	0.507	0.481	0.607	0.462	0.717	0.987

Cell Line	relative viability (VE-821 + Navitoclax; first compound 0.08 µM)	relative viability (VE-821 + Navitoclax; first compound 0.253 µM)	relative viability (VE-821 + Navitoclax; first compound 2.53 µM)	relative viability (VE-821 + Navitoclax; first compound 8 µM)	relative viability (Vismodegib + Palbociclib; first compound 0.08 µM)	relative viability (Vismodegib + Palbociclib; first compound 0.253 µM)	relative viability (Vismodegib + Palbociclib; first compound 0.8 µM)	relative viability (Vismodegib + Palbociclib; first compound 2.53 µM)	relative viability (Vismodegib + Palbociclib; first compound 8 µM)	relative viability (Vismodegib + Navitoclax; first compound 0.08 µM)	relative viability (Vismodegib + Navitoclax; first compound 0.253 µM)	relative viability (Vismodegib + Navitoclax; first compound 0.8 µM)	relative viability (Vismodegib + Navitoclax; first compound 2.53 µM)	relative viability (Vismodegib + Navitoclax; first compound 8 µM)	relative viability (Ruxolitinib + Pemetrexed; first compound 0.08 µM)	relative viability (Ruxolitinib + Pemetrexed; first compound 0.253 µM)	relative viability (Ruxolitinib + Pemetrexed; first compound 0.8 µM)	relative viability (Ruxolitinib + Pemetrexed; first compound 2.53 µM)	relative viability (Ruxolitinib + Pemetrexed; first compound 8 µM)	relative viability (VE-821 + Navitoclax; first compound 0.8 µM)
IA-LM	0.855	0.71	0.92	0.527						0.912	0.725	0.908	0.82	0.868						0.755
LC-2-ad	0.587	0.413	0.622	0.291	0.477	0.501	0.482	0.479	0.544	0.573	0.447	0.422	0.522	0.553	0.287	0.306	0.306	0.26	0.272	0.566
Calu-6	0.845	0.828	0.648	0.35						0.712	0.781	0.817	0.877	0.845						0.791
NCI-H2126	0.897	0.821	0.815	0.699	0.329	0.335	0.342	0.333	0.328	0.838	0.846	0.864	0.802	0.766	0.757	0.736	0.789	0.721	0.663	0.833
NCI-H647	1.09	1.15	1	0.573	0.328	0.409	0.463	0.354	0.452		1.02	1.18	1.03	1.28	0.177	0.189	0.199	0.162	0.117	0.856
NCI-H322M	1.24		1.38	1.08	0.455	0.465	0.459	0.506	0.509	1.19	1.3	1.14	1.23	1.07	0.641	0.605	0.662	0.628	0.639	1.39
NCI-H358					0.141	0.181	0.138	0.135	0.16						0.174	0.152	0.177	0.163	0.126	
NCI-H2342					0.517	0.699	0.472	0.574	0.483						0.594	0.767	0.812	0.752	0.733	
LK-2	0.996	0.965	1.06	0.97	0.72	0.708	0.607	0.83	0.745	0.818	0.734	0.797	0.859	0.784	0.291	0.276	0.308	0.234	0.29	0.767
NCI-H1993	0.787	0.747	0.797	0.694	0.699	0.682	0.636	0.568	0.565	1.1	0.913	0.884	0.759	0.705	0.662	0.525	0.618	0.633	0.621	0.772
A-427	0.928	0.945	0.981	0.625	0.536	0.525	0.506	0.493	0.566	0.988	0.897	0.889	1	0.976	1	0.927	0.967	1.04	0.893	1.04
NCI-H2347	0.941	0.809	0.959	0.763	0.443	0.418	0.419	0.448	0.488	0.735	0.821	0.766	0.763	0.792	0.459	0.407	0.451	0.406	0.434	0.775
ChaGo-K-1	0.929	1.06	1.03	0.594	0.913	0.968	0.893	0.927	0.915	0.994	1.14	0.956	0.977	0.986	0.255	0.263	0.26	0.256	0.246	1.22
NCI-H1299	1.05	1.04	1	1.03						1.03	1	1.09	0.935	1.01						1.01
BEN	0.0647	0.0527	0.0551	0.0693	0.455	0.483	0.469	0.479	0.512	0.0646	0.062	0.0698	0.0746	0.0684	0.534	0.744	0.818	0.688	0.95	0.059
ABC-1					0.667	1.01	0.542	0.618	0.73											
NCI-H1703	1.25	0.923	0.394	0.246						1.02	1.05	0.986	1.23	1.47						1.17
NCI-H522					1.16	0.985	0.894	0.923	1.03						1.04	0.973	1.05	0.964	0.857	
SW 900					0.641	0.514	0.634		0.603						0.467	0.493	0.485	0.466	0.532	
NCI-H727	0.478	0.57	0.546	0.216	0.687	0.649	0.631	0.723	0.639	0.496	0.428	0.453	0.36	0.386						0.411
